From ChEMBL document CHEMBL1201862, “PubChem BioAssay data set” (2004)
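Method: 48-hour compound exposure of cells in 96-well plates, five concentrations, linear interpolation of endpoints. GI50 marks 50% less growth.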 Activity calls are given as the source filed them. Cut-off read from the data, not from the text of the source: active = GI50 up to about 1.1 µM and inactive = higher.

Key:
Experiment in all cases: DTP human tumour cell line panel, 48 h
786-0 = test system: 786-0
ACHN = test system: ACHN
HOP-62 = test system: HOP-62
HOP-92 = test system: HOP-92
K562 = test system: K562
KM-20L2 = test system: KM-20L2
NCI-H226 = test system: NCI-H226
OVCAR-4 = test system: OVCAR-4
OVCAR-5 = test system: OVCAR-5
OVCAR-8 = test system: OVCAR-8
SW-620 = test system: SW-620
U-251 = test system: U-251
BT-549 = test system: BT-549
Hs-578T = test system: Hs-578T
MCF7 = test system: MCF7
MDA-MB-231 = test system: MDA-MB-231
MDA-MB-435 = test system: MDA-MB-435
MDA-N = test system: MDA-N
NCI/ADR-RES = test system: NCI/ADR-RES
RXF 393 = test system: RXF 393

Measured: GI50

O=C(O)COc1ccccc1C(=O)Nc1ccccc1
inactive: 786-0 > 100 µM | ACHN > 100 µM | HOP-62 > 100 µM | HOP-92 > 100 µM | K562 > 100 µM | KM-20L2 > 100 µM | NCI-H226 > 100 µM | OVCAR-4 > 100 µM | OVCAR-5 > 100 µM | OVCAR-8 > 100 µM | SW-620 > 100 µM | U-251 > 100 µM

C/C(=N\NS(=O)(=O)c1ccc(C)cc1)P(=O)(O)O
inactive: 786-0 > 100 µM | ACHN > 100 µM | BT-549 > 100 µM | HOP-62 > 100 µM | HOP-92 > 100 µM | Hs-578T > 100 µM | K562 > 100 µM | MCF7 > 100 µM | MDA-MB-231 > 100 µM | MDA-MB-435 > 100 µM | MDA-N > 100 µM | NCI-H226 > 100 µM | NCI/ADR-RES > 100 µM | OVCAR-4 > 100 µM | OVCAR-5 > 100 µM | OVCAR-8 > 100 µM | RXF 393 > 100 µM | SW-620 > 100 µM | U-251 > 100 µM

C#Cc1c(C)c(/C=C/C(C)=C/C=C/C(C)=C/C(=O)OC)n(C)c1C
inactive: 786-0 > 100 µM | ACHN > 100 µM | HOP-62 > 100 µM | HOP-92 > 100 µM | K562 > 100 µM | KM-20L2 > 100 µM | OVCAR-4 > 100 µM | OVCAR-5 > 100 µM | OVCAR-8 > 100 µM | SW-620 > 100 µM | U-251 > 100 µM

CCOC(=O)C1=C(C)N(NC(N)=O)C(C)(O)C12CCOC2=O (stereo not given)
inactive: 786-0 > 100 µM | ACHN > 100 µM | HOP-62 > 100 µM | K562 > 100 µM | KM-20L2 > 100 µM | NCI-H226 > 100 µM | OVCAR-4 > 100 µM | OVCAR-5 > 100 µM | OVCAR-8 > 100 µM | SW-620 > 100 µM | U-251 > 100 µM

NCCSc1nc2ccccc2s1
inactive: 786-0 26.6 µM | ACHN 33.5 µM | BT-549 31.5 µM | HOP-62 23.8 µM | HOP-92 25.5 µM | Hs-578T 32.1 µM | K562 10.6 µM | MCF7 28.8 µM | MDA-MB-231 40 µM | MDA-MB-435 23 µM | MDA-N 38.3 µM | NCI-H226 36.6 µM | NCI/ADR-RES 42.6 µM | OVCAR-4 29 µM | OVCAR-5 38.3 µM | OVCAR-8 43.2 µM | RXF 393 29.5 µM | SW-620 32.1 µM | U-251 21.7 µM

O=C(/C=C1\C[C@H]2C=Nc3ccccc3C(=O)N2C1)NCCCCCNC(=O)/C=C1\C[C@H]2C=Nc3ccccc3C(=O)N2C1
inactive: 786-0 1.84 µM | ACHN 1.98 µM | BT-549 12.6 µM | HOP-62 14.2 µM | HOP-92 4.63 µM | Hs-578T 22.6 µM | K562 2.88 µM | MCF7 6.97 µM | MDA-MB-231 16.2 µM | MDA-MB-435 4.7 µM | MDA-N 7 µM | NCI-H226 > 51.5 µM | NCI/ADR-RES 24.3 µM | OVCAR-4 7.53 µM | OVCAR-5 18.8 µM | OVCAR-8 2.99 µM | RXF 393 3.56 µM | SW-620 2.1 µM | U-251 3.03 µM

COc1c(O)cc(O)c2c(=O)cc(-c3ccccc3)oc12 [WOGONIN]
inactive: 786-0 51.9 µM | ACHN 31.4 µM | BT-549 55.2 µM | HOP-62 21.7 µM | HOP-92 > 100 µM | Hs-578T 18.7 µM | K562 25.1 µM | MCF7 35.6 µM | MDA-MB-231 > 100 µM | MDA-MB-435 65.5 µM | MDA-N 84.7 µM | NCI-H226 40.9 µM | NCI/ADR-RES 60.5 µM | OVCAR-4 77.4 µM | OVCAR-5 49.7 µM | OVCAR-8 52.4 µM | RXF 393 17.5 µM | SW-620 54.1 µM | U-251 63.2 µM
